Data as given in paper PMC7115508 (European Journal of Medicinal Chemistry, 2011).

Tests used:
[1] = test system: normal human fibroblast cell HS27
[2] = test system: HCV RNA replication in HCV replicon cell (Huh-7 carrying the subgenomic HCV genotype 1 replicon); conditions: read-out: Antiviral Activity HCV (EC50); cited from earlier work

Row | Structure (SMILES) | Cytotoxicity: concentration required to reduce proliferation of normal human fibroblast cell HS27 by 50% [1] | EC50 [2]
1 | N#Cc1cccc(COc2cc(=O)c3c(O)c(OCc4cccc(Cl)c4)ccc3o2)c1 [5g, 3-[6-(3-chloro-benzyloxy)-5-hydroxy-4-oxo-4H-chromen-2-yloxymethyl]-benzonitrile] | >50 µM | –
2 | O=c1cc(OCc2cccc(I)c2)oc2ccc(OCc3cccc(Cl)c3)c(O)c12 [5e, 6-(3-chloro-benzyloxy)-5-hydroxy-2-(3-iodo-benzyloxy)-chromen-4-one] | >50 µM | –
3 | O=c1cc(OCc2cc(Cl)cc(Cl)c2)oc2ccc(OCc3cccc(Cl)c3)c(O)c12 [5d, 6-(3-chloro-benzyloxy)-2-(3,5-dichloro-benzyloxy)-5-hydroxy-chromen-4-one] | >50 µM | –
4 | O=c1cc(OCc2ccccc2)oc2ccc(OCc3cccc(Cl)c3)c(O)c12 [5a, 2-benzyloxy-6-(3-chloro-benzyloxy)-5-hydroxy-chromen-4-one] | >50 µM | –
5 | N#Cc1cccc(COc2cc(O)c3c(=O)c(O)c(-c4ccccc4)oc3c2)c1 [compound 4, reference compound] | >50 µM | 3 µM
6 | O=c1c(OCc2cccc([N+](=O)[O-])c2)c(-c2ccccc2)oc2cc(O)cc(O)c12 [compound 3, reference compound] | >50 µM | 5 µM
7 | O=c1cc(OCc2ccc(Cl)cc2)oc2ccc(OCc3cccc(Cl)c3)c(O)c12 [5c, 6-(3-chloro-benzyloxy)-2-(4-chloro-benzyloxy)-5-hydroxy-chromen-4-one] | >50 µM | –
8 | O=c1cc(OCc2ccc(I)cc2)oc2ccc(OCc3cccc(Cl)c3)c(O)c12 [5f, 6-(3-chloro-benzyloxy)-5-hydroxy-2-(4-iodo-benzyloxy)-chromen-4-one] | >50 µM | –
9 | O=c1cc(OCc2cccc(Cl)c2)oc2ccc(OCc3cccc(Cl)c3)c(O)c12 [5b, 2,6-bis-(3-chloro-benzyloxy)-5-hydroxy-chromen-4-one] | >50 µM | –
10 | O=C(O)/C(O)=C/C(=O)c1cccc(NCc2ccc(Cl)cc2)c1 [compound 1, reference compound] | >50 µM | –
